Measurements reported in patent US7723388B2, “Avian appeasing pheromones to decrease stress, anxiety and aggressiveness” (priority 2002, dated 2010).

Test system: population of mites (Dermanyssus gallinae, Omithonyssus sylvianm)
Experiment: In vitro sensitivity of the mite population to mite treatments
Conditions: for Dose to obtain LD50 / Dose to obtain LD100: pd: prescribed dose; for Dose to obtain LD50: 50% of mites killed over 24 hours; for Dose to obtain LD100: 100% of mites killed in 24 hours; for LD 100 at the dose of the product notice: surroundings corresponding to the conditions of breeding
Experimental: Mites were also tested for during the course of this example. At day 0, the first diffusers of the avian appeasing pheromone were posed and the sampling of mites was effectuated. For the 12 samples that were taken, 5 samples permitted the identification of the species of mites in the breeding; 3 were utilized and placed in a mite culture and recuperated at the end of the internal experiment; and 4 served to test the sensitivity of parasites to the mites used.
On the 5 samples effectuated, […] samples of parasites were identified. 76% (n=86) were identified as Dermanyssus gallinae (chicken mites) and 24% (n=28) were Omithonyssus sylvianm (Northern Fowl mites).
Testing the sensitivity of the mites was next conducted. This test was performed in the population of mites with an in vitro system that verifies the sensitivity of the mite treatment utilized (Carbamate).
The parasites were thus exposed to a variety of concentrations of miticide. The dosage was determined by the value of the notice of dosage recommendation on the product.
Under experimental conditions 2 lots (T1 and T2) were subjected to the tests. The T1 lot corresponded to a universal test, which is not authorized in breeding since Ivermectine was used. Lot 2 corresponded to a test made with Amitraze.

With `Cc1ccc(/N=C/N(C)/C=N/c2ccc(C)cc2C)c(C)c1` [Amitraze] the “Dose to obtain LD50” value was 1 pd, the “Dose to obtain LD100” value was 1 pd and the “LD 100 at the dose of the product notice” value was “obtained with the doses prescribed”.

Ivermectine was tested, and the “Dose to obtain LD50” value was 1 pd, the “Dose to obtain LD100” value was 1 pd and the “LD 100 at the dose of the product notice” value was “obtained with the doses prescribed”.
